In BindingDB's records for doi:10.1016/j.bmcl.2004.01.093 (University of California Irvine, 2004):

Molecular target: Protein phosphatase 1 catalytic subunit (Oryctolagus cuniculus)
Assay: Inhibitory activity against protein phosphatase-1 from rabbit skeletal muscle

Structure (SMILES)	IC50 [µM]
CCOC(=O)c1ccc(NC(=O)C2C(C(=O)O)[C@@H]3C=C[C@H]2O3)cc1 (stereo partly specified)	76
COC(=O)c1cccc(NC(=O)C2C(C(=O)O)[C@@H]3C=C[C@H]2O3)c1 (stereo partly drawn) [(1S,4R)-3-(3-Methoxycarbonyl-phenylcarbamoyl)-7-oxa-bicyclo[2.2.1]hept-5-ene-2-carboxylic acid]	60
CNC(=O)C1C(C(=O)O)[C@@H]2C=C[C@H]1O2 (stereo partly drawn) [(1S,4R)-3-Methylcarbamoyl-7-oxa-bicyclo[2.2.1]hept-5-ene-2-carboxylatemethyl-ammonium;]	> 100

Continued, values first:

IC50 [µM]	Structure (SMILES)
> 100	N#CC[C@]12C=C[C@H](O1)[C@@H]1C(=O)OC(=O)C12 (stereo partly drawn) [((1R,6R,7S)-3,5-Dioxo-4,10-dioxa-tricyclo[5.2.1.0*2,6*]dec-8-en-1-yl)-acetonitrile]
> 100	CC(=O)NC[C@@]12CC[C@@H](O1)C1C(=O)OC(=O)[C@H]12 (stereo partly drawn) [N-((1S,2R,7R)-3,5-Dioxo-4,10-dioxa-tricyclo[5.2.1.0*2,6*]dec-1-ylmethyl)-acetamide]
> 100	CC(=O)NC[C@@]12C=C[C@@H](O1)C1C(=O)OC(=O)[C@H]12 (stereo partly drawn) [N-((1S,2R,7R)-3,5-Dioxo-4,10-dioxa-tricyclo[5.2.1.0*2,6*]dec-8-en-1-ylmethyl)-acetamide]
